Measurements as given in PMC6736837, “^18F-labelled triazolyl-linked argininamides targeting the neuropeptide Y Y1R for PET imaging of mammary carcinoma” (Scientific Reports, 2019).
“Also recorded” adds a separate entry of the source.

Tests used:
Y1R = molecular target: Y1R; parameters: method as in PMID 28337321; settings: displacement of [^3H]UR-MK114, SK-N-MC neuroblastoma cells; cited from earlier work
MCF-7-Y1 tumours = assay: Small animal PET in MCF-7-Y1 xenografted nude mice; format: in vivo, mouse; settings: 45–60 min p.i., blocking by co-injection of BIBP3226 1 mg/kg
Method: For the NPY Y1R xenograft model, female NMRI nude mice (HsdCpb:NMRI-Foxn1^nu) were purchased from Envigo (Horst, The Netherlands) at the age of three weeks. Mice were kept in groups of four to five animals in individually ventilated cages in a twelve hours dark/light cycle with unlimited access to water and standard chow. At the age of nine to ten weeks one 17β-estradiol pellet per animal (0.72 mg per pellet, 3 mm diameter) with a 60-day release time (Innovative Research of America, Sarasota, FL, USA) was subcutaneously implanted on the back under isoflurane anesthesia. After three days, approximately 10^6 MCF-7-Y1 tumour cells (in 50 µL PBS) were mixed with Matrigel (50 µL, BD Biosciences, Heidelberg) and then injected subcutaneously at the back. Tumour diameters and weight of the animals were recorded five times a week. Imaging studies were performed four weeks after inoculation of the cells.
Small animal PET scans were performed on an Inveon™ microPET scanner (Siemens Healthcare, Erlangen) under isoflurane anesthesia (3%). Tumour bearing mice (26–35 g, n = 2–3 for each radioligand) were intravenously injected into the tail vein with the respective radiotracer (1.5–4.2 MBq in about 100 µL of saline) under isoflurane anesthesia (3–4%). Static images were acquired for 15 min starting 45 min p.i. of the radiotracer. For displacement studies, the same mice were co-injected with the radiotracer ([^18F]12 and [^18F]13 only) and BIBP3226 (1 mg/kg). Images were corrected for decay and attenuation and MAP (iterative maximum a posteriori) images were reconstructed using the built-in software of the PET scanner. Evaluation of the MAP images was conducted using the software PMOD (version 3.6, PMOD Technologies LLC, Zürich). Regions of interests (ROIs) were drawn and radioactivity concentration within these regions was obtained from the mean values and calculated as percentage of the total injected dose per gram tissue (% ID/g).

[1] = Binding to human plasma proteins by gel filtration; format: in vitro ADME; settings: 37 °C, read-out: Free fraction in plasma
Method: The binding of ^18F-labelled compounds to plasma proteins was determined using gel filtration columns(illustra™ MicroSpin™ G-50 Columns, GE Healthcare Life Sciences, Freiburg). An aliquot of the radiotracer (approx. 100 kBq) was added to 200 µL of saline, and 100 µL of human plasma, respectively. Both samples were incubated at 37 °C for 10 min. MicroSpin™ columns were prepared according to the user instruction. Then 25 µL of the incubated radiotracer were given onto the columns and the devices were centrifuged (2000 × g, 2 min). Eluate and solid phase were analysed in the γ-counter (Wallac Wizard). The percentage of unbound radioligand was calculated as %free=cpmsolidphase/cpmsolidphase+cpmeluate . The sample in saline was used as control.

[2] = Radioactive metabolites of Y1R radioligands in mouse blood; format: in vivo
Method: Nude mice were anesthetised with isoflurane and injected with the respective radiotracer (3–25 MBq) into the tail vein. After 5 min, animals were sacrificed by cervical dislocation and approx. 100 µL blood were collected from the abdomen and transferred into Li-heparinised Microvettes® (100 LH, Sarstedt). The same volume of aqueous urea (0.8 g/mL) was added and the Microvette® was centrifuged (2000 × g, 5 min). The supernatant was transferred to a 1.5 mL reaction vial, mixed with the same volume of 10% aqueous TFA and centrifuged (20000 × g, 5 min). This step was repeated once. A sample of the resulting supernatant (100 µL) was analysed by radio-HPLC using two methods (Chromolith RP-18e, 100 × 4.6 mm, 4 mL/min, 0–1 min 25% CH3CN (0.1%TFA) in water (0.1%TFA), 1–6 min 25–60%, 6–7 min 60–100%, 7–8 min 100%; Kromasil 100 C8 5 µm, 250 × 4.6 mm, 1.5 mL/min, 1–25 min 20–53.3% CH3CN (0.1% TFA) in water (0.1% TFA), 25–27 min 53.3–80%, 27–28 min 80–100%, 28–32 min 100%).

[3] = Octanol-water distribution coefficient logD7.4, shake flask method; format: physicochemical; settings: 1-octanol/PBS, pH 7.4, PBS/1-octanol, read-out: logD7.4 experimental
Method: The lipophilicity of the radioligands was determined by the distribution coefficient logD7.4. The respective radioligand (10 µL, about 25 kBq) was added to a mixture of PBS (500 µL) and 1-octanol (500 µL) and the emulsion was vortexed for 1 min. After centrifugation 3 × 100 µL were taken of each layer and analysed by a γ-counter. The partition coefficient was calculated as logD7.4=log(cpmoctanol/cpmPBS) . Data were expressed as mean values ± SD from three experiments.

[4] = Biodistribution in healthy mice; format: in vivo, mouse; settings: at 30 and 90 min p.i.
Method: Biodistribution studies were conducted using female NMRI outbred mice (HsdWin:NMRI) purchased from Envigo (Horst, The Netherlands). Mice were kept in groups of four to five animals in individually ventilated cages in a twelve hours dark/light cycle with unlimited access to water and standard chow. At the age of eight to nine weeks six animals per radiotracer were injected with 2–4 MBq of the respective radiotracer under isoflurane anesthesia. Mice were sacrificed by cervical dislocation 30 or 90 min p.i. of the radiotracer. Blood as well as the organs/tissues lung, liver, kidneys, heart, spleen, brain, muscle, intestines, gall bladder and bones were harvested and analysed in the γ-counter. Samples were weighed and radioactivity in different tissues was calculated as percentage of the total injected dose per gram tissue (%ID/g).

MCF-7-Y1 tumour slices = assay: In-vitro autoradiography on MCF-7-Y1 tumour xenograft slices; format: binding, human; settings: blocking with 1 µM and 10 µM BIBP3226
Method: MCF-7-Y1 tumour bearing mice were sacrificed by cervical dislocation under deep isoflurane anesthesia and tumours were excised and subsequently frozen in a hexane/dry ice bath (−70 °C). MCF-7-Y1 tumour slices (14 µm) were prepared on a cryostat microtome HM 500 O (Microm, Walldorf) and thaw-mounted on Histobond® adhesive glass slides (Marienfeld, Lauda-Königshofen).
For autoradiography studies slides were thawed and pre-incubated for 15 min in incubation buffer (50 mM TRIS HCl, pH 7.4, containing 120 mM NaCl, 5 mM MgCl2,) at room temperature. Thereafter, 800 µL of incubation buffer, containing 0.1 MBq of the respective radiotracer were pipetted on the slide and incubated at room temperature for 60 min. For displacement studies BIBP3226 (1 µM or 10 µM) was added to the incubation buffer before pipetting on the slides. Afterwards slides were washed by placing in ice cold incubation buffer (3 × 2 min) followed by short dipping in ice cold distilled water. Slides were carefully dried in a stream of warm air and finally placed on an autoradiography film (Fuji Imaging Plate BAS-IP SR 2025 E, Fujifilm, Düsseldorf) overnight prior to readout (25 µm resolution) on the autoradiograph (HD-CR-35 Bio, Raytest, Straubenhardt) and analysis with the software AIDA (Raytest). Additional sections were stained with hematoxylin and eosin (H&E) for comparison with the autoradiography images.

[5] = Radiotracer stability in human serum by radio-HPLC; format: in vitro ADME; settings: 37 °C
Method: The stability of ^18F-labelled compounds was determined in human serum. An aliquot of the radiotracer (5–10 MBq) was added to 200 µL human serum and incubated at 37 °C. Aliquots of 15 µL were taken after 5, 10, 15, 30, 45, 60, 120 and 180 min and quenched in 100 µL of 10% aqueous TFA. The samples were centrifuged (20000 × g, 2 min), and the supernatants were analysed by radio-HPLC (Chromolith RP-18e, 100 × 4.6 mm, 4 mL/min, 0–1 min 25% CH3CN (0.1% TFA) in water (0.1% TFA), 1–6 min 25–60%, 6–7 min 60–100%, 7–8 min 100%).

hY5R = molecular target: T1, hY5R (Homo sapiens, UniProt Q15761); settings: read-out: Kd of the radioligand (Y5R); cited from earlier work
T1 construct: expressed in transfected cells; host or cells: HEC-1b cells (HEC-1b hY5R)
T1 sequence (Q15761 1-445): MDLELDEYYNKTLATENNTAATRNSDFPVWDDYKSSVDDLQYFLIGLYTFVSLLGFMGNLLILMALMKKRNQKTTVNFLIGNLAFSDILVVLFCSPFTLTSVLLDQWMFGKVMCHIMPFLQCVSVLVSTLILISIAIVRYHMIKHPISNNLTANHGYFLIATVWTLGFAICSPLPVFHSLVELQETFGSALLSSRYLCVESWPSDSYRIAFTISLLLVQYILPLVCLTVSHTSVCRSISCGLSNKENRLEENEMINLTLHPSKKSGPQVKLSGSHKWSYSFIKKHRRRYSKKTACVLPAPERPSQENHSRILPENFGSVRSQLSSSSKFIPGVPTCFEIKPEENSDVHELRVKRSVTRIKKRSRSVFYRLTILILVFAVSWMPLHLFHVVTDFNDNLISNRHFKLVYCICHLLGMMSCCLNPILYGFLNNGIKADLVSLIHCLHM

For `NC(N)=NCCC[C@@H](NC(=O)C(c1ccccc1)c1ccccc1)C(=O)NCc1ccc(O)cc1` [BIBP3226], the Ki (Y1R) is listed as 1.3 nM.

In the case of `N/C(=N/C(=O)NCc1cn(CCOCC[18F])nn1)NCCC[C@@H](NC(=O)C(c1ccccc1)c1ccccc1)C(=O)NCc1ccc(O)cc1` [[^18F]12, (2R)‐5‐{[(1Z)‐Amino({[({1‐[2‐(2‐[^18F]fluoroethoxy)ethyl]‐1H‐1,2,3‐triazol‐4‐yl}methyl)carbamoyl]-imino})methyl]amino}‐2‐(2,2‐diphenylacetamido)‐N‐[(4‐hydroxyphenyl)methyl]pentanamide], the “tumour visualisation / specific tumour accumulation in PET” value (MCF-7-Y1 tumours) is reported as “displaceable and thus specific Y1R-mediated tumour acculuation in vivo; also recorded: enhanced and specific tumour uptake; also recorded: highest specific binding to the Y1R-positive tumour in vivo”, the fraction unbound at 10 min [1] is reported as 0.38 and the “radiometabolites in the blood” value ([2]; mouse) is reported as over 90%. For the same compound, the “stability in the blood in vivo (in words)” value ([2]; mouse blood samples taken early after radiotracer injection) was “underwent rapid degradation in the blood”, the “intact radioligand in blood samples” value ([2]; mouse, 5 min p.i.) was 10% and the logD [3] was 1.74 ± 0.07. For the same compound, the kidney uptake [4] was “about three times higher”, the “specific binding to MCF-7-Y1 tumour slices (autoradiography)” value (MCF-7-Y1 tumour slices) was “marked specific binding; also recorded: highest specific binding to Y1R-positive cells and to tumour slices” and the “Stability over 3 h in human serum” value [5] was over 99%.

In the case of “[^3H]propionyl-pNPY: tritiated radioligand used for competition binding at hY2R and hY5R”, the Kd (hY5R) is listed as 4.8 nM.
